Assay [1] addresses PIK3CG (human) (UniProt P48736). The experiment in a line: Cell-Based Assay. The following applies: u937.
In the next assay the target is PIK3CB (Human) (UniProt P42338). Briefly: Enzyme Assay.
The target of a further assay is PIK3CA (human) (UniProt P42336). The experiment in a line: Enzyme Assay.
In a further assay the target is PIK3CD (Human) (UniProt O00329). Briefly: Enzyme Assay.
In assay [2] the target is PIK3CG (human) (UniProt P48736). Briefly: Enzyme Assay.

This note sets out measurements from the Kinase Knowledgebase extract (Sharma et al. 2016).

Bounds are passed on as bounds.

One may read the IC50 as the concentration needed to halve the response being measured.

Chain of PIK3CB (Human) (P42338 whole entry, looked up): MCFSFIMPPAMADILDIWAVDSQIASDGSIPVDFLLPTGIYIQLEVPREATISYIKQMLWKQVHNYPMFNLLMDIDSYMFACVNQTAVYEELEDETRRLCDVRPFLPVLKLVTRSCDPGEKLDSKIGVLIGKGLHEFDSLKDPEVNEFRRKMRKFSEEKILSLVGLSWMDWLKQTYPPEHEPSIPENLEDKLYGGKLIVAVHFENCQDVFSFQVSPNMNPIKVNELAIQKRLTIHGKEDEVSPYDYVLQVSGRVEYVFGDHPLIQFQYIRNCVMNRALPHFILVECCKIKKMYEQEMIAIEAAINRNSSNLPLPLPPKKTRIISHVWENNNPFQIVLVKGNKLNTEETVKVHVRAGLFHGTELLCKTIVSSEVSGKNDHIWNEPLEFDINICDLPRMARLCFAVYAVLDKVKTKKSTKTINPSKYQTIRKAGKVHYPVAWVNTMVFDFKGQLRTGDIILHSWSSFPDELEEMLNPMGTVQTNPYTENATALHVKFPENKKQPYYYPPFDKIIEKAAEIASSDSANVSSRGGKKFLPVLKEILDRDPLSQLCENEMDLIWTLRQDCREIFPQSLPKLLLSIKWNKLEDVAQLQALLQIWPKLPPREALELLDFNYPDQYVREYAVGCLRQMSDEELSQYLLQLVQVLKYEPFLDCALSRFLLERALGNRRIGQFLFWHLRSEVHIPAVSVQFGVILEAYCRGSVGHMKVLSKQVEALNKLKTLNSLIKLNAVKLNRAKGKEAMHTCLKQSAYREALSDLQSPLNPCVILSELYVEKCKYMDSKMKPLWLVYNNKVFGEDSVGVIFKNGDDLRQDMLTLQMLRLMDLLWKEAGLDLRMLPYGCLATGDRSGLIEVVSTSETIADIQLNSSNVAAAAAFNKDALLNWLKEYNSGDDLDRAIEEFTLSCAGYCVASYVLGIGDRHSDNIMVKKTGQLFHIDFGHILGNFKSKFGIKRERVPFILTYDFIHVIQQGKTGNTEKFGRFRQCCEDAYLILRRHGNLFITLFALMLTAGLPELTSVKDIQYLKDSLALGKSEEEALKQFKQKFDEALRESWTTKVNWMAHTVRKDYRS
Chain of PIK3CD (Human) (O00329 whole entry, looked up): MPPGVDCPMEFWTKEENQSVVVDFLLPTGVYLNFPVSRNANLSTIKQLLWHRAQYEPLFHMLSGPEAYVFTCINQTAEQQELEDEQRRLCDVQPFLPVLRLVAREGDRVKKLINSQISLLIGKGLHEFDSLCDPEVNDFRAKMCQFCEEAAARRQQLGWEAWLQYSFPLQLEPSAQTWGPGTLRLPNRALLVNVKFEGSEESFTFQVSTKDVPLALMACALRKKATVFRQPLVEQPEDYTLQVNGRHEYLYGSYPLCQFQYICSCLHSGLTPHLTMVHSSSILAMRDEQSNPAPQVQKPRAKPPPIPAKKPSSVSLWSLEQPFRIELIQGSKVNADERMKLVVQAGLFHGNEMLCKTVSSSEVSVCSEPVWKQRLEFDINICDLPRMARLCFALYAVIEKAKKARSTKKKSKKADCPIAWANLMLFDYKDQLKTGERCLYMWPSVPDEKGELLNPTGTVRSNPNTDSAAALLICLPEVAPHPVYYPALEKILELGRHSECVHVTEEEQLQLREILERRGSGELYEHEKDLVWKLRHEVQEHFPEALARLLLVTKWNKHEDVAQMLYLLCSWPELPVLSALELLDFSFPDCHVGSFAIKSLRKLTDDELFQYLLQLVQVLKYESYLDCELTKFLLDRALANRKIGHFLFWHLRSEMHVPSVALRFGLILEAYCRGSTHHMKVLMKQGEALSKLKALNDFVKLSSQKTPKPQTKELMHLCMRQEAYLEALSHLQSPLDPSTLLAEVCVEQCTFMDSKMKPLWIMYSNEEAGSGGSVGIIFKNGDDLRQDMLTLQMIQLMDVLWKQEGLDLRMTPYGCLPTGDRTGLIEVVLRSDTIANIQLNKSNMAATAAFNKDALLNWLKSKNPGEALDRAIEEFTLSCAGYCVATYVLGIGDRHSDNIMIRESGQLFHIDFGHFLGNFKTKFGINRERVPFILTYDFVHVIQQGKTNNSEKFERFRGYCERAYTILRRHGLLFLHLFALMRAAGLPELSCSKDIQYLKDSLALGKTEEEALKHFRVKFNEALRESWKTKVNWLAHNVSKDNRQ
Chain of PIK3CG (human) (P48736 whole entry, looked up): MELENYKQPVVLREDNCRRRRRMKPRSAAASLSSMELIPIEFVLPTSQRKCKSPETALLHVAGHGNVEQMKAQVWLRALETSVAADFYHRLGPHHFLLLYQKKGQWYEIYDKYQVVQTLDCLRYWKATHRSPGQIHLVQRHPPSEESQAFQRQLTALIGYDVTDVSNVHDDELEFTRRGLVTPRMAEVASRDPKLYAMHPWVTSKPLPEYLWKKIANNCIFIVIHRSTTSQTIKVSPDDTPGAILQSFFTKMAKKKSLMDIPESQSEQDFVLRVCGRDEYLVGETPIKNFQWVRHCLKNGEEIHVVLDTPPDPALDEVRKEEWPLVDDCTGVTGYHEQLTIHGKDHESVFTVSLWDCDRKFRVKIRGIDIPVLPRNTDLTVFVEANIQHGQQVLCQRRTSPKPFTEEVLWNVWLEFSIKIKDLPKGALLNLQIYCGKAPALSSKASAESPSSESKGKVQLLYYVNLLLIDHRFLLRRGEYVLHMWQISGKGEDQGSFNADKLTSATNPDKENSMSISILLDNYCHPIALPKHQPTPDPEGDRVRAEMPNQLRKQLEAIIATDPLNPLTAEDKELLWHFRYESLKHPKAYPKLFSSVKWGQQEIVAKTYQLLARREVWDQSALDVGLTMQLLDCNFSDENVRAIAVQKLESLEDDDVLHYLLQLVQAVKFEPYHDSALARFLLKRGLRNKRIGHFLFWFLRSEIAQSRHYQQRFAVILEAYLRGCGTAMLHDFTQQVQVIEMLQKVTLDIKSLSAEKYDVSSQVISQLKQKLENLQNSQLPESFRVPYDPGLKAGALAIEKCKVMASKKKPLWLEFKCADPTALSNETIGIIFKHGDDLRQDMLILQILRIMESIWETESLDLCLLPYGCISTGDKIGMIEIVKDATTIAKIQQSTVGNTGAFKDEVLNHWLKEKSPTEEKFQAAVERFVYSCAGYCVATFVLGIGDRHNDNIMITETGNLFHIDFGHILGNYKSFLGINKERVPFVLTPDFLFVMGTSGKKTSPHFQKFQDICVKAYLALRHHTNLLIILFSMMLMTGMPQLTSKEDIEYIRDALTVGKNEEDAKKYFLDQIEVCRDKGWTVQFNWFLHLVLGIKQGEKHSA
Chain of PIK3CA (human) (P42336 whole entry, looked up): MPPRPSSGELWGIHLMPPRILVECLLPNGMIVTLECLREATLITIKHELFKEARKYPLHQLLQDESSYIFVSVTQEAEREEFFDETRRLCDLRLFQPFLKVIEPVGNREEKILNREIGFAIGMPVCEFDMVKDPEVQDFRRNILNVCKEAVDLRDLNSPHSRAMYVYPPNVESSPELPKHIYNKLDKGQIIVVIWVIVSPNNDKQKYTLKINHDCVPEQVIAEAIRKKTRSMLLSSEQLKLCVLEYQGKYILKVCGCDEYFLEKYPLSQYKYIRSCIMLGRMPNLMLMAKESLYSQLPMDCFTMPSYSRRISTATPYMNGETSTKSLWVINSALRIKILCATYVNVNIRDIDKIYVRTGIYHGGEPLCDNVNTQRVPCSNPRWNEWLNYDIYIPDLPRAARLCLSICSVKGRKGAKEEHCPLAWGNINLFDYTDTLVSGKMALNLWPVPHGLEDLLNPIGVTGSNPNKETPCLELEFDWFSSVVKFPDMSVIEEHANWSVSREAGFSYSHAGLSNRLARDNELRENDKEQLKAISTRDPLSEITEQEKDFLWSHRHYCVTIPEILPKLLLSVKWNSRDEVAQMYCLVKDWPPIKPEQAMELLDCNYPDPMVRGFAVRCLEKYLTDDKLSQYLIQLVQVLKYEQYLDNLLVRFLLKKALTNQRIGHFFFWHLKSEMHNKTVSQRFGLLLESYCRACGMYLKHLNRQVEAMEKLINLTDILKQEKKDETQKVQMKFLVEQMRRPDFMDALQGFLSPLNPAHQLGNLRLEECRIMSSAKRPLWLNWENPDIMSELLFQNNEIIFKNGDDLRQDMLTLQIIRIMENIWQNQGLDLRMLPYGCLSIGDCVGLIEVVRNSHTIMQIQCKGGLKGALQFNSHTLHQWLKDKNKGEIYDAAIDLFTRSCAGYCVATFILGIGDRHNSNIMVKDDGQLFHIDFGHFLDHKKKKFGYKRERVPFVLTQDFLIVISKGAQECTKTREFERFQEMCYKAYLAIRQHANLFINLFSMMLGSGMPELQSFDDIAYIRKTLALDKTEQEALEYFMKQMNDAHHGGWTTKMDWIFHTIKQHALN

For `Cc1ccc(S(=O)(=O)N[C@H]2CC[C@H](O)CC2)cc1-c1cncc(-c2csc(CN3CCOCC3)c2)n1`, the IC50 against PIK3CG (human) [1] is 122 nM; on PIK3CB (Human) it was > 9100 nM; at PIK3CA (human), 160 nM; against PIK3CD (Human), 10 nM; on PIK3CG (human) [2] it was 6 nM.
The corresponding values for `Cc1ccc(S(=O)(=O)NC[C@H]2C[C@@H](O)C2)cc1-c1cncc(-c2cn(C)nc2C)n1` are 61 nM, 630 nM, 90 nM, 100 nM and 11 nM.
The corresponding values for `Cc1cc(-c2cncc(-c3cc(S(=O)(=O)NC[C@H]4C[C@@H](O)C4)ccc3C)n2)n(C)n1` are 122 nM, 1900 nM, 100 nM, 40 nM and 38 nM.
For the molecule `Cc1ccc(S(=O)(=O)NC2CC3(CC(O)C3)C2)cc1-c1cncc(-c2cn(C)nc2C)n1` (stereo not given), the IC50 at PIK3CG (human) [1] turned out to be 22 nM; at PIK3CB (Human), 450 nM; at PIK3CA (human) it was 40 nM; against PIK3CD (Human), 90 nM; against PIK3CG (human) [2] it was 13 nM.
